# Source: patent US4761477A (priority 1984, dated 1988)
# Like-named read-outs stand apart in the source and are kept apart here.
# Legend:
# cholera toxin = type: in vivo, SPF male Wister rats; conditions: secreta measured after 5 hours, rats
# [1] = Stability: test compounds heated at 100° C. for 8 hours; type: physicochemical; conditions: for stability (in words): compared with the conventionally-known halides; for Changes in appearance / Percent remainder (%): heated at 100° C. for 8 hours; for Percent remainder (%): 480 min
# Protocol: Test compounds were heated at 100° C. for 8 hours. Changes in their appearance and their percent remainders were studied.
# Solubility in water = type: physicochemical
# adenylate cyclase [2] = assay: Inhibition of adenylate cyclase activity of intestinal epithetial cells; type: biochemical; conditions: 200 nM, mice
# Protocol: (§1) At 200 nM concentration, 13-propylberberin bisulfate inhibits about 50% of adenylate cyclase activity of intestinal epithetial cells or splenic lymphocytes in mice.
# adenylate cyclase [3] = assay: Inhibition of adenylate cyclase activity of splenic lymphocytes; type: biochemical; conditions: 200 nM, mice
# Protocol: as §1
Structure (SMILES),stability (in words) [1],Changes in appearance [1],Percent remainder (%) [1],Solubility (Solubility in water),other results
"CCCc1c2[n+](cc3c(OC)c(OC)ccc13)CCc1cc3c(cc1-2)OCO3 [13-Propylberberine bisulfate, 13-propylberberine bisulfate]",extremely stable,no changes,100.0%,soluble,Inhibition rate (%) (cholera toxin; 0.5 mg/kg injected into ligated tract with 20 μg cholera toxin): 13.0%; Inhibition rate (%) (cholera toxin; 2 mg/kg injected into ligated tract with 20 μg cholera toxin): 40.0%; Solubility (Solubility in water; listed as 13-propylberberine sulfate): readily soluble in water; inhibition of adenylate cyclase activity (adenylate cyclase [2]): about 50%; inhibition of adenylate cyclase activity (adenylate cyclase [3]): about 50%
"CCCc1c2[n+](cc3c(OC)c(OC)ccc13)CCc1cc3c(cc1-2)OCO3 [13-Propylberberine bromide, 13-propylberberine bromide, reference compound]",–,–,57.0%,–,–
"CCCc1c2[n+](cc3c(OC)c(OC)ccc13)CCc1cc3c(cc1-2)OCO3 [13-Propylberberine chloride, reference compound]",–,–,48.7%,–,–
"CCCc1c2[n+](cc3c(OC)c(OC)ccc13)CCc1cc3c(cc1-2)OCO3 [13-Propylberberine iodide, reference compound]",–,–,52.1%,–,–
"CCCc1c2[n+](cc3c(OC)c(OC)ccc13)CCc1cc3c(cc1-2)OCO3 [13-Propylberberine primary phosphate, 13-propylberberine primary phosphate]",extremely stable,no changes,99.8%,soluble,Solubility (Solubility in water; listed as 13-propylberberine phosphate): readily soluble in water
"COc1ccc2cc3[n+](cc2c1OC)CCc1cc2c(cc1-3)OCO2 [Berberine chloride, reference compound]",–,–,–,–,Inhibition rate (%) (cholera toxin; 20 mg/kg injected into ligated tract with 20 μg cholera toxin): 8.0%
